Ki and ED50 data for ten compounds are collected here from ChEMBL document CHEMBL1149085, “Potential utility of histamine H3 receptor antagonist pharmacophore in antipsychotics” (Bioorg Med Chem Lett, 2009).

One assay deals with Histamine H3 receptor (Homo sapiens, UniProt Q9Y5N1). Description: biochemical. The class given is cell-based, HEK293.
In a further assay the target is D(2) dopamine receptor (Homo sapiens, UniProt P14416). Description: biochemical. The assay is classed as cell-based, CHO.
In another assay the target is D(1A) dopamine receptor (Homo sapiens, UniProt P21728). Description: biochemical.
Another assay concerns the target D(1B) dopamine receptor (Homo sapiens, UniProt P21918). Description: biochemical.
The next assay has as its target D(3) dopamine receptor (Homo sapiens, UniProt P35462). Description: biochemical.
The species entered for a further assay is Mus musculus. Description: animal or person. The class given is functional. As to conditions: Swiss, Cerebral cortex, po, 1.5 h.

SMILES strings stand for the structures. Bounds are passed on as bounds.

D(1A) dopamine receptor, sequence (P21728 whole entry): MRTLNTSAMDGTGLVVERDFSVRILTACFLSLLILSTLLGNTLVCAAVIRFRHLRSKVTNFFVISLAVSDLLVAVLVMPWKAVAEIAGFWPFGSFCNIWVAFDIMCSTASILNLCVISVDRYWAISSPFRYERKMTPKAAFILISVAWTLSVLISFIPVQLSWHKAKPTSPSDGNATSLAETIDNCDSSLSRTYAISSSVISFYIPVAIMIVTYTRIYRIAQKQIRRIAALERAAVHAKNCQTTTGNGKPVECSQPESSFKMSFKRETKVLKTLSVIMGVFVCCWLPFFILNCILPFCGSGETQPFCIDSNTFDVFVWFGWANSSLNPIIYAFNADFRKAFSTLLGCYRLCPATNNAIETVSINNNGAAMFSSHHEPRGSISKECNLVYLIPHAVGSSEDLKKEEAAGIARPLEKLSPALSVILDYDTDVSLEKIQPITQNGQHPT
D(2) dopamine receptor, sequence (P14416 whole entry): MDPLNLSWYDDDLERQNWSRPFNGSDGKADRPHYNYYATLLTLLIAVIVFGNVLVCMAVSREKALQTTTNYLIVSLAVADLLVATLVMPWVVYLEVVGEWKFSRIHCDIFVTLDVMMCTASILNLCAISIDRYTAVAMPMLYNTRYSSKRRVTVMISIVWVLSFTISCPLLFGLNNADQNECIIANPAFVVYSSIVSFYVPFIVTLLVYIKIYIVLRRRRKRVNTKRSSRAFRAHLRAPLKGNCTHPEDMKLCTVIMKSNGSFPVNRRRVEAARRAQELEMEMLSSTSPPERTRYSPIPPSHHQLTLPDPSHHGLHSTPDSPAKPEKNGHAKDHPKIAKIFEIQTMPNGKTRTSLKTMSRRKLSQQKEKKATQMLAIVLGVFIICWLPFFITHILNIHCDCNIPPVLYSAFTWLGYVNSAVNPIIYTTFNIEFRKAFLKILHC
D(1B) dopamine receptor, sequence (P21918 whole entry): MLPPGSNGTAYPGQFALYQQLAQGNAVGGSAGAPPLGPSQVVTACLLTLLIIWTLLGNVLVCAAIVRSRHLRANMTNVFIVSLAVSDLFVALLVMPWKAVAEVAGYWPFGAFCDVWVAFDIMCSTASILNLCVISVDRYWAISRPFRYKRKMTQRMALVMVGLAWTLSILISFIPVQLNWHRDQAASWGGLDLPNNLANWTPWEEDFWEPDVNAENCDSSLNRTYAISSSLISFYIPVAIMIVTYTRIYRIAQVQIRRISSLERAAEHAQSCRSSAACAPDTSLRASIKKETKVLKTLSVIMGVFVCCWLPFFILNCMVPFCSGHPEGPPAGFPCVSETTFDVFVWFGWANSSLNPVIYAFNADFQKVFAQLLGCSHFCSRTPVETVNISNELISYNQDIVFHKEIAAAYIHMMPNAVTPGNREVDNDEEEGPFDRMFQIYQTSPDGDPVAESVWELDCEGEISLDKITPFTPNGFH
D(3) dopamine receptor, sequence (P35462 whole entry): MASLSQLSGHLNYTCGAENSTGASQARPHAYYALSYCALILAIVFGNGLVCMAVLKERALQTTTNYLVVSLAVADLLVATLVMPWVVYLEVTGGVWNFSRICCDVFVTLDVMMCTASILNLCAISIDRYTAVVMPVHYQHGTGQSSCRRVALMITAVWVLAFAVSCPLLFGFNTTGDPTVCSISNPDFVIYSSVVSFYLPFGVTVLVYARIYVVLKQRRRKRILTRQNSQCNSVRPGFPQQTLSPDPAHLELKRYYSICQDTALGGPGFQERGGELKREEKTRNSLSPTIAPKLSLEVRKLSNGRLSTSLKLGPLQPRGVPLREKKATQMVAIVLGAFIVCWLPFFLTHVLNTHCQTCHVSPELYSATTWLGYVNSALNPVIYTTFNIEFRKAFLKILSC
Histamine H3 receptor, sequence (Q9Y5N1 whole entry): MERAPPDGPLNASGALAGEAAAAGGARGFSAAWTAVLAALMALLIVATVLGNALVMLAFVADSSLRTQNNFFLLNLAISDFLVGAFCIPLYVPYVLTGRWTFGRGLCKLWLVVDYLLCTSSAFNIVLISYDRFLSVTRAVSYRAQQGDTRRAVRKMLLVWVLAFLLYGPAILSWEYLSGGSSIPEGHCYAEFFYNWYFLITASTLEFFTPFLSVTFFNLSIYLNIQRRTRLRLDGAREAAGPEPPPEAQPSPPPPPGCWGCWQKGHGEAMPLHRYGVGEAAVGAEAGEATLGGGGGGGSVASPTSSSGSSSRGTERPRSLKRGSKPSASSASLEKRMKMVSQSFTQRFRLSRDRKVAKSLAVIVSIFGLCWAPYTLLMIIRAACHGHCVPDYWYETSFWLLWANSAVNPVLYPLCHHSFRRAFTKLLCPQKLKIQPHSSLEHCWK
Description for D(1A) dopamine receptor: Displacement of [3H]SCH23390 from human dopamine D1 receptor expressed in HEK cells
Description for D(1B) dopamine receptor: Displacement of [3H]SCH23390 from human dopamine D5 receptor expressed in HEK cells
Description for D(2) dopamine receptor: Displacement of [3H]spiperone from human dopamine D2 receptor expressed in CHO cells
Description for D(3) dopamine receptor: Displacement of [3H]spiperone from human dopamine D3 receptor expressed in CHO cells
Description for Histamine H3 receptor: Displacement of [125I]iodoproxyfan from human histamine H3 receptor expressed in CHO/HEK293 cells
Description for Mus musculus: Antagonist activity at histamine H3 receptor in po dosed Swiss mouse cerebral cortex assessed as Ntau-methylhistamine level after 90 mins by radioimmunoassay

As to `CN(C)CCC=C1c2ccccc2CCc2ccccc21` [AMITRIPTYLINE], the Ki was more than 1000 nM at Histamine H3 receptor; 196 nM on D(2) dopamine receptor; […] on D(1A) dopamine receptor; 170 nM on D(1B) dopamine receptor; 206 nM at D(3) dopamine receptor.
In the case of `CN(CCC=C1c2ccccc2CCc2ccccc21)C(=O)c1ccc(OCCCN2CCCCC2)cc1`, the Ki was 3.5 nM on Histamine H3 receptor; more than 1000 nM at D(2) dopamine receptor; more than 1000 nM at D(1A) dopamine receptor; more than 1000 nM on D(1B) dopamine receptor; 243 nM on D(3) dopamine receptor.
Take `CN(CCCC12CCC(c3ccccc31)c1ccccc12)Cc1ccc(OCCCN2CCCCC2)cc1`: the Ki worked out at 0.358 nM at Histamine H3 receptor; 146 nM at D(2) dopamine receptor; 203 nM at D(1A) dopamine receptor; 265 nM at D(1B) dopamine receptor; 149 nM on D(3) dopamine receptor.
For `CN(CC/C=C1\c2ccccc2Sc2ccc(Cl)cc21)Cc1ccc(OCCCN2CCCCC2)cc1`, the inhibition constant Ki at Histamine H3 receptor worked out at 1.54 nM; at D(2) dopamine receptor, 52 nM; on D(1A) dopamine receptor it was 248 nM; on D(3) dopamine receptor, 50 nM.
With `CN(CCC=C1c2ccccc2CCc2ccccc21)Cc1ccc(OCCCN2CCCCC2)cc1`, the Ki at Histamine H3 receptor worked out at 0.25 nM; at D(2) dopamine receptor it was 101 nM; on D(1A) dopamine receptor it was 305 nM; at D(1B) dopamine receptor it was 273 nM; on D(3) dopamine receptor, 67 nM. In the assay filed under Mus musculus, this compound came in with a 50% effective dose (ED50) of more than 10 mg/kg.
In the case of `O=C(OCCN1CCN(CCCN2c3ccccc3Sc3ccc(C(F)(F)F)cc32)CC1)c1ccc(OCCCN2CCCCC2)cc1`, the Ki was 0.042 nM at Histamine H3 receptor; 47 nM on D(2) dopamine receptor; 203 nM at D(1A) dopamine receptor; 265 nM on D(1B) dopamine receptor; 15 nM on D(3) dopamine receptor.
On to `CN(C)CC/C=C1/c2ccccc2Sc2ccc(Cl)cc21` [CHLORPROTHIXENE], for which the values for the Ki at D(2) dopamine receptor, on D(1B) dopamine receptor and at D(3) dopamine receptor were 2.96 nM, 9 nM and 4.56 nM, respectively.
With `CN(CCC=C1c2ccccc2CCc2ccccc21)C(=O)Cc1ccc(OCCCN2CCCCC2)cc1`, the Ki was 4.9 nM on Histamine H3 receptor; 904 nM at D(2) dopamine receptor; 879 nM at D(1A) dopamine receptor; more than 1000 nM at D(1B) dopamine receptor; 326 nM on D(3) dopamine receptor.
Take `Clc1ccc2c(c1)N=C(N1CCN(Cc3ccc(OCCCN4CCCCC4)cc3)CC1)c1ccccc1N2`: the Ki on Histamine H3 receptor turned out to be 3.27 nM; at D(2) dopamine receptor, 285 nM; on D(1A) dopamine receptor, 866 nM; at D(1B) dopamine receptor, 921 nM; at D(3) dopamine receptor it was 223 nM.
Regarding `CN(CCCN1c2ccccc2Sc2ccc(Cl)cc21)Cc1ccc(OCCCN2CCCCC2)cc1`, the Ki at Histamine H3 receptor was 1.21 nM; at D(2) dopamine receptor it was 41 nM; on D(1A) dopamine receptor, 232 nM; at D(1B) dopamine receptor it was 153 nM; at D(3) dopamine receptor, 50 nM.
